Experimental data reported in patent US20240401154A1, “SYNTHESIS AND PREPARATION OF ULTRA-LOW VISCOSITY AND HIGH MAGNETIC SUSCEPTIBILITY MAGNETIC IONIC LIQUIDS” (priority 2023, published 2024).

Test: Magnetic properties by SQUID magnetometer
Type: physicochemical
Conditions: applied magnetic field H=20 kOe; Curie-Weiss fit
Experimental: Magnetic properties were analyzed using a magnetic susceptibility balance (MSB, Sherwood Scientific, Cambridge, UK) and a Quantum Design Superconducting Quantum Interference Device (SQUID) magnetometer (MPMS XL-7). The magnetic properties of transition metal MILs were further studied using a SQUID magnetometer to confirm their paramagnetic nature as well as if any magnetic transition occurs in the samples.
The magnetic properties of transition metal MILs were further studied using a SQUID magnetometer to confirm their paramagnetic nature as well as if any magnetic transition occurs in the samples.
The calculated μeff of 5.21μB for the [Ni(C6-DGE)6][Ni(hfacac)3]2 MIL (FIG. 12A) from SQUID matches quite well with the theoretical μtheo value (5.31μB, TABLE 1) and also with that obtained from MSB measurements (5.48μB).

CCCCCCOC(=O)COCC(=O)OCCCCCC.CCCCCCOC(=O)COCC(=O)OCCCCCC.CCCCCCOC(=O)COCC(=O)OCCCCCC.CCCCCCOC(=O)COCC(=O)OCCCCCC.CCCCCCOC(=O)COCC(=O)OCCCCCC.CCCCCCOC(=O)COCC(=O)OCCCCCC.O=C(C=C([O-])C(F)(F)F)C(F)(F)F.O=C(C=C([O-])C(F)(F)F)C(F)(F)F.O=C(C=C([O-])C(F)(F)F)C(F)(F)F.O=C(C=C([O-])C(F)(F)F)C(F)(F)F.O=C(C=C([O-])C(F)(F)F)C(F)(F)F.O=C(C=C([O-])C(F)(F)F)C(F)(F)F.[Ni+2].[Ni+2].[Ni+2] [MIL 2]
μeff from SQUID: 5.21 μB

CCCCCCOC(=O)COCC(=O)OCCCCCC.CCCCCCOC(=O)COCC(=O)OCCCCCC.CCCCCCOC(=O)COCC(=O)OCCCCCC.CCCCCCOC(=O)COCC(=O)OCCCCCC.CCCCCCOC(=O)COCC(=O)OCCCCCC.CCCCCCOC(=O)COCC(=O)OCCCCCC.O=C(C=C([O-])C(F)(F)F)C(F)(F)F.O=C(C=C([O-])C(F)(F)F)C(F)(F)F.O=C(C=C([O-])C(F)(F)F)C(F)(F)F.O=C(C=C([O-])C(F)(F)F)C(F)(F)F.O=C(C=C([O-])C(F)(F)F)C(F)(F)F.O=C(C=C([O-])C(F)(F)F)C(F)(F)F.[Mn+2].[Mn+2].[Mn+2] [MIL 3]
μeff from SQUID: 8.31 μB
